Assays:
T98G cells = experiment: Clonogenic survival assay, POH with or without radiation, T98G; type: cell-based, human
Description: Cell Line: The T98G cell line was derived from a resection specimen obtained from a patient with glioblastoma multiforme. T98G cells express endogenous mutant p53 and introduction of wild-type p53 sensitizes these cells to radiation. The radioresistance of this cell line has also been attributed to the presence of high intracellular levels of GSH, which down-regulates NFκB binding activity after exposure to ionizing radiation. A clonogenic survival assay was used to assess the response to treatment in vitro, as it is a measure of reproductive capacity.
Clonogenic Survival Assays: The T98G cell line was obtained from ATCC and maintained in DMEM-F12 medium containing 10% fetal bovine serum, 1% penicillin, streptomycin and 1 mM non-essential amino acids in a humidified incubator at 37° C. Stock solution of POH was made in the medium. One set of plates was treated with graded doses of POH (0.1 mM to 1 mM) for a period of 72 hours. Control dishes were treated with medium alone. All cells were irradiated at a dose rate of 7.5Gy/min using a CS-137 irradiator with single doses ranging from 1 Gy to 8.5Gy. The range of radiation doses used encompasses that used to treat patients.
Following irradiation, both POH treated and untreated cells were harvested by trypsinization and washed with PBS. Cells were incubated for two weeks after initial plating, fixed with methanol, stained with crystal violet and the number of colonies per dish quantitated. Survival was determined as the ratio of plating efficiencies for each irradiated group to that of the unirradiated control.
Subconfluent cultures of human glioma cell line T98G were treated with 0.1–0.5 mM of Perillyl Alcohol for 72 hours and subsequently to increasing doses of radiation from 0.1 Gy to 8.5 Gy. Control cells were treated with medium alone. The cells were harvested and an optimum number of cells were allowed to grow for 14 days. The resulting colonies were stained and counted. Each graphed point represents mean values ± SE values of triplicate dishes.
(§1) Table 1 summarizing data from different cell lines treated with radiation, radiation plus POH, and POH alone. Subconfluent cultures of human glioma (T98G, M059K, U251), prostate (DU145, PC3), colon (DLD-1, HT29) and pancreatic (MIAPACA) cancer cell lines were treated with 0.1–0.5 mM of POH for 72 hours and subsequently to increasing doses of radiation from 0.1 Gy to 8.5 Gy. Control cells were treated with medium alone. The cells were harvested and an optimum number of cells were allowed to grow for 14 days. The resulting colonies were stained and counted. Each graphed point represents mean values ± SE values of triplicate dishes. Percentage survival was determined as the ratio of plating efficiencies for each irradiated group to that of the unirradiated control.

HT29 colon cancer cells = experiment: Clonogenic survival assay, POH with or without radiation, HT29; type: cell-based, human
Method: as §1

Fas Ligand = experiment: Membrane bound Fas ligand staining by flow cytometry; type: cell-based, human
Method: Referring to FIG. 17, glioma cell lines (T98G, U251, U87 and U353) were treated with 0.3 mM perillyl alcohol (POH) for 72 hours and the cells were harvested using cell dissociation solution. The resulting cell pellet was stained with biotinylated antibody specific to the human Fas-Ligand (Pharmingen), or IgG1 k isotype control for 45 minutes at 4° C. The cells were washed and incubated with streptavidin conjugated phycoerythrin washed and analyzed by flow cytometry.
The cells were harvested using cell dissociation solution, and the resulting cell pellet was washed and incubated with biotinylated anti-human antibody, which served as a control to eliminate non-specific binding. Following the primary antibody incubation the cells were washed and subsequently stained with secondary antibody conjugated to phycoerythrin (PE) (PharMingen) and antibody to CD95 directly conjugated to allophycocyanin (APC). The stained cells were analyzed using a Beckton-Dickinson FACStar plus and the results were acquired using CELLquest software.
Subconfluent cultures of the indicated glioma (T98G, U251, U353, U87MG), prostate (DU145, PC3), colon (DLD-1) and melanoma (Mel5) cell lines were treated with varying concentrations of POH (0.1 mM–1 mM POH) dissolved in medium for 72 hours. […] The stained cells were analyzed using a Beckton-Dickinson FACStar plus and the results were acquired using CELLquest. […]

pancreatic carcinoma = settings: POH-fed hamsters; control animals showed tumor growth; cited from earlier work

Question: With `C=C(C)[C@@H]1CC=C(CO)CC1` [POH, Perillyl alcohol] as the compound, how does the “concentration with the most pronounced radiosensitization” value (T98G cells) read?
Answer: 0.5 mM

Question: And the “lowest concentration at which radiosensitization was observed” value (T98G cells)?
Answer: 0.1 mM

Question: What about the “% SURVIVAL” value (T98G cells; 0.1 mM POH 72 h, no radiation) of the same compound?
Answer: 0.755 ± 0.016%

Question: What about the “% SURVIVAL” value (T98G cells; 0.1 mM POH + 5.5 Gy) of the same compound?
Answer: 0.130 ± 0.002%

Question: What about the “% SURVIVAL” value (T98G cells; 0.3 mM POH 72 h, no radiation) of the same compound?
Answer: 0.660 ± 0.024%

Question: And the “% SURVIVAL” value (T98G cells; 0.3 mM POH + 5.5 Gy)?
Answer: 0.066 ± 0.004%

Question: And the “% SURVIVAL” value (T98G cells; 0.5 mM POH 72 h, no radiation)?
Answer: 0.500 ± 0.006%

Question: What about the “% SURVIVAL” value (T98G cells; 0.5 mM POH + 5.5 Gy) of the same compound?
Answer: 0.037 ± 0.014%

Question: What about the “sensitization to radiation induced cell death” value (T98G cells; pretreatment before and during irradiation) of the same compound?
Answer: dose dependent sensitization

Question: What about the “% SURVIVAL” value (HT29 colon cancer cells; 0.1 mM POH 72 h, no radiation) of the same compound?
Answer: 1.060 ± 0.090%

Question: And the “% SURVIVAL” value (HT29 colon cancer cells; 0.1 mM POH + 5.5 Gy)?
Answer: 0.050 ± 0.005%

Question: What about the “% SURVIVAL” value (HT29 colon cancer cells; 0.3 mM POH 72 h, no radiation) of the same compound?
Answer: 0.714 ± 0.030%

Question: And the “% SURVIVAL” value (HT29 colon cancer cells; 0.3 mM POH + 5.5 Gy)?
Answer: 0.034 ± 0.003%

Question: And the “% SURVIVAL” value (HT29 colon cancer cells; 0.5 mM POH 72 h, no radiation)?
Answer: 0.400 ± 0.010%

Question: And the “% SURVIVAL” value (HT29 colon cancer cells; 0.5 mM POH + 5.5 Gy)?
Answer: 0.006 ± 0.002%

Question: What about the “Fas Ligand in glioma, prostate, colon and melanoma cell lines” value (Fas Ligand; 0.1 mM–1 mM POH 72 hours, more pronounced at lower concentrations) of the same compound?
Answer: upregulation of the Fas Ligand

Question: And the “membrane bound Fas ligand on glioma cell lines” value (Fas Ligand; T98G, U251, U87, U353, 0.3 mM POH 72 hours)?
Answer: upregulation

Question: What about the “antitumor effect in pancreatic carcinoma models” value (pancreatic carcinoma) of the same compound?
Answer: either regression or no growth of the tumors
